From ChEMBL document CHEMBL3507680, “University of Dundee, Gates Library screen for HepG2 cell viability”

Assay: Human HepG2 cell viability assay in 384 well format
Assay type: toxicity, cell-based
Design: dose 125 nL, time 70.5 hour; cytotoxicity at 70.5 h: concentration not given beside the values
Conditions: HepG2 cells, read-out: Inhibition

SMILES | cytotoxicity at 70.5 h [%]
COc1cccc(N2CCN(C(=O)c3noc4c3CCCCC4)CC2)c1 | -4.22
COCCN1CCc2nc(SCc3ccc(F)cc3)[nH]c(=O)c2C1 | 28.7
CCC(C)NS(=O)(=O)c1ccc(/C=C\c2onc(C)c2NC(C)=O)cc1 (stereo not drawn) | -4.12
CC(=O)Nc1c(C)noc1/C=C\c1ccc(S(=O)(=O)NC2CC2)cc1 | -1.71
CN1C(=N)NC(=O)/C1=C/c1ccc(-c2ccc(Br)cc2)o1 | 1.84
O=C(CCC(=O)Nc1nnc(C(F)(F)F)s1)NCC1CCCO1 (stereo not drawn) | -0.323
Cc1cc(=O)n2nc(-c3cccs3)nc2n1CC(=O)NC(C)C | -24
COCCNC(=O)c1ccc2c(=O)n3c(nc2c1)CCCC3 | -2.97
CCc1nc(-c2ccc(NC(=O)N3CCC4(CC3)OCCO4)cc2)no1 | 3.68
COc1ccccc1CNc1c(O)c(=O)c1=O | -7.01
COc1ccc(OC)c(CNc2c(O)c(=O)c2=O)c1 | -21.2
CCOC(=O)CNC(=O)NCc1cccn1Cc1ccc(F)cc1 | 22.9
CCOC(=O)CNC(=O)NCc1cccn1Cc1ccccc1C | -17.6
CCOC(=O)N1CCN(C(=O)CCn2cccc2)CC1 | 7.81
CC(=O)N1N=C(COc2ccc3c(c2)OCO3)OC1c1ccc(C)cc1 (stereo not drawn) | -14.5
Cc1nn(CC(=O)O)c(C)c1NS(=O)(=O)c1cccc2ccccc12 | -6.18
COCCCN(Cc1cnc(-c2ccccn2)nc1)C1CCN(C)CC1 | -22.2
CCOC(=O)N1CCC(NC(C)c2ccccc2-n2cccn2)CC1 (stereo not drawn) | 35.4
OC1(CNCCCN2CCc3ccccc32)CCNC1 (stereo not drawn) | 22.2
Cc1ccccc1-n1cc(-c2ccnc(N[C@H](CO)C(C)C)n2)cn1 | -14.1
CCOc1ccc2[nH]c(=O)c(CN3CCCC3c3ccccn3)cc2c1 (stereo not drawn) | -11.8
Cc1ccc(C(=O)N2CCC(n3cc(CO)nn3)CC2)cn1 | 11
CSCc1noc(CNS(=O)(=O)c2cccc(C(=O)NC3CC3)c2)n1 | -10.1

SMILES | cytotoxicity at 70.5 h [%]
Cc1nonc1CN1CC[C@@](O)(C2CCC2)[C@H](C)C1 | -3.97
CN(C)C(=O)CN1C[C@@H]2CC[C@H](C1)N(Cc1ccccc1OCCO)C2 | -9.08
CC(C)OC(=O)c1ccc(Cl)c(NC(=O)NCCN2CCOCC2)c1 | -7.91
Cc1ncsc1CCC(=O)NCc1csc(N2CCCC2)n1 | -6.59
COc1ccccc1-n1c(CC(C)C)nnc1SCC(=O)O | -2.95
CCCc1nc(CNC(=O)Cc2cc(C)no2)cs1 | 19.8
COc1ccc2c(c1)OCC(Cc1ccc(CN)cn1)C2 (stereo not drawn) | -7.48
CCc1ncc(CN2CCCN(CC3CC3)C(C(C)C)C2)cn1 (stereo not drawn) | 9.86
Cc1ccccc1-c1noc(C2CC(C(C)C)=NO2)n1 (stereo not drawn) | -0.419
Cc1cc(N(C)CCCn2cccn2)nc(-c2cccnc2)n1 | 11.2
CN(C)c1ncc(-c2c(-c3ccccc3)ncn2C(CO)C(=O)O)cn1 (stereo not drawn) | -10.8
COc1cccc(-c2n[nH]cc2-c2nc(CC3CCN(C)CC3)no2)c1 | -6.75
COc1cccc2c1OCC(C(=O)NCCc1nnc(C)s1)C2 (stereo not drawn) | 8.68
CC(Cn1cncn1)NC(=O)c1cn(Cc2ccccc2F)nn1 (stereo not drawn) | 0.213
O=C(C1CCS(=O)(=O)CC1)N1CCC(Cc2ccc(F)cc2)CC1 | 3.44
Cc1ccc(F)c(OC2(C(=O)O)CCN(C(=O)c3ccncc3)CC2)c1 | -4.46
COc1cccc(OCC2CCCN(C(=O)c3cc(C)n[nH]3)C2)c1 (stereo not drawn) | 4.2
CCn1cc(S(=O)(=O)NC2CCCN(CCCc3ccccc3)C2)cn1 (stereo not drawn) | -1
CCc1cn[nH]c1C1CCN(C(=O)c2cc(C#N)c(=O)[nH]c2C)CC1 | -3.13
CN1CC2(CCCN(Cc3nnc(-c4cccc(F)c4)o3)C2)OC1=O (stereo not drawn) | -5.83
Cc1cc(N2C[C@H](NC(=O)C3(C#N)CCOCC3)[C@@H](C(C)C)C2)ccn1 | -10.5
Cc1cc(C)n(-c2ccc(C(=O)NCc3cncn3CC(C)C)cc2)n1 | -1.13
O=C1CC2(CCN(C(=O)Cc3cc4c(cc3Cl)OCCO4)C2)C(=O)N1 (stereo not drawn) | -5.25

SMILES | cytotoxicity at 70.5 h [%]
Cc1cccc(N2CCC(N3CCCC4(CN(C)C(=O)O4)C3)CC2)c1C (stereo not drawn) | -9.98
C[C@@H]1CN(C(=O)c2cc(COc3ccc4c(c3)OCO4)[nH]n2)C[C@H](C)O1 | -3.48
CCC(C(=O)NCc1noc(Cc2cccs2)n1)n1cccn1 (stereo not drawn) | 26
Cc1cc2ccccc2n1CCC(=O)N1CCCC(O)(CN(C)C)CC1 (stereo not drawn) | -0.891
Cc1ccccc1CN(CCO)Cc1ncc[nH]1 | -12.3
CCn1c(CC2CCN(C(=O)c3cc(C(C)C)n[nH]3)CC2)n[nH]c1=O | -6.21
Nc1nc(Sc2cccs2)cc(N2CC[C@H](CO)[C@H](O)C2)n1 | 22.1
COc1ccnc(N2C[C@@H]3CC[C@H](C2)N(CC2CC2)C3)n1 | 4.47
CNC(=O)C1CCN(C(=O)c2coc(COc3ccc(OC)cc3)n2)C1 (stereo not drawn) | -2.27
Cc1ccc(F)c(OC2(C(=O)O)CCN(C(=O)C3CCCC3)CC2)c1 | -4.91
Cc1c(CN2CCCC(c3[nH]ncc3S(C)(=O)=O)C2)cnn1C (stereo not drawn) | -5.66
Fc1cccnc1CN1CCCCC1c1ccn2ccnc2n1 (stereo not drawn) | 6.23
Nc1cc(CCC2CN(Cc3ccc(C(=O)O)cc3)CCO2)ccn1 (stereo not drawn) | 23.8
CNc1ccc(CC2CCCN(C(=O)c3cncnc3C)C2)nn1 (stereo not drawn) | -0.989
CCn1cc(C(=O)N2CCCC(c3[nH]ncc3S(C)(=O)=O)C2)cn1 (stereo not drawn) | -8.2
O=C(NC[C@]1(O)CN(Cc2ccccc2F)C[C@H]1O)c1ccccn1 | -62.9
COc1cccc(-c2noc(C3CCN(Cc4cn(C)nc4C)C3)n2)c1 (stereo not drawn) | -5.53
Cn1cc(C(=O)N2CCCC(Cc3nccs3)C2)cn1 (stereo not drawn) | -1.09
Cc1cncc(C2CCCN(Cc3cccn3C)C2)n1 (stereo not drawn) | 0.452
CCCn1ccc(C(=O)N2CCOC(c3nc(-c4cccs4)no3)C2)n1 (stereo not drawn) | 4.34
CCn1cc(CN2CCCC(c3[nH]ncc3S(C)(=O)=O)C2)cn1 (stereo not drawn) | 1.9
Fc1ccc(CN2CCCC2c2cncc(-n3ccnc3)n2)cc1 (stereo not drawn) | -1.28
COCC(=O)N1CCC(c2cc(C(F)(F)F)n3ccnc3n2)CC1 | -8.3

SMILES | cytotoxicity at 70.5 h [%]
CC1CN(C)CCN1C(=O)c1ccn(-c2ccccc2Cl)n1 (stereo not drawn) | 16.7
c1cc(CN2CCCC2c2noc(C3CC3)n2)on1 (stereo not drawn) | -15.8
COc1c(C2CCCN2C(=O)c2cc(C)on2)c(C)nn1C (stereo not drawn) | -8.13
CNS(=O)(=O)c1ccc(CNC(=O)c2cccc(C)n2)cc1 | 16.9
O=c1oc(-c2ccc(F)cc2)nn1CN1CCSCC1 | -15
Cc1noc(C(C)C)c1C(=O)NCc1cccc(CN(C)C)c1 | -1.69
CC1CN(Cc2ccccn2)CCN1c1ccc2nncn2n1 (stereo not drawn) | -0.942
CCc1nnc2n1CCN(C(=O)c1cc3cc(C)ccc3[nH]1)C2 | -13.6
CCOc1cccc(CNC2CCCN(Cc3noc(C)n3)C2)c1 (stereo not drawn) | -12.1
CCc1nnc2n1CCN(C(=O)c1cc3ccccc3[nH]1)C2 | -7.28
CN1CCN(C2CCN(CCOc3ccc(Cl)cc3)CC2)C1=O | -6.64
CN1CCN(C2CCN(CCOc3cccc(Cl)c3)CC2)C1=O | -7.02
CN1CCN(C2CCN(CCOc3ccc(C#N)cc3)CC2)C1=O | -5.65
CCc1nc(C2CCCN2CC(=O)Nc2nnc(C)s2)no1 (stereo not drawn) | -13.4
COc1c(C2CCCN2C(=O)c2cnc[nH]2)c(C)nn1C (stereo not drawn) | -2.57
CCN1CCN(C2CCN(CCOc3ccc(F)cc3)CC2)C1=O | -11.7
Cc1cnc(CN2CCN(c3ccc4nncn4n3)C(C)C2)cn1 (stereo not drawn) | -15.4
Cc1nc(CN2CCN(c3ccc4nncn4n3)C(C)C2)oc1C (stereo not drawn) | -8.63
COc1ccc(CNC(C)Cn2cccn2)cc1F (stereo not drawn) | -1.59
c1ccc(-c2nc(CN3CCCC3Cn3cccn3)no2)cc1 (stereo not drawn) | 1.06
COc1ccc(-n2ccc(C(=O)NCCN3CCCCCC3)n2)cc1 | -2.62
O=C(Cc1cccc(F)c1)NCCNCc1cccnc1 | -4.1
COc1cn(-c2ccccc2)nc1C(=O)NCCN1CCCC(C)C1 (stereo not drawn) | -7.85

SMILES | cytotoxicity at 70.5 h [%]
O=C1CN(c2ccc(CNC(=O)NCC3CCOC3)cc2)CCN1 (stereo not drawn) | -5.59
CC1CCCN(CCNC(=O)c2ccn(-c3cccc(F)c3)n2)C1 (stereo not drawn) | 1.27
c1cc2n(n1)CC(CNCc1ccc(OC3CCCC3)nc1)CN2 (stereo not drawn) | -14.1
c1ccc(-c2nccc(CNC3CCc4ncnn4C3)n2)cc1 (stereo not drawn) | -4.99
COc1cccc(S(=O)(=O)NC(=O)CC2CCCO2)c1 (stereo not drawn) | 21.5
Cc1cc(C[S+]([O-])CC(=O)NCc2cccc(Cl)c2)no1 (stereo not drawn) | -10.3
O=C(Cc1ccc(F)cc1)NCCNCc1cccc(O)c1 | 0.177
N#Cc1cccc(CNCCNC(=O)Cc2cccc(F)c2)c1 | 26.7
c1ccc(Cc2noc(CN3CCCC3Cn3cccn3)n2)cc1 (stereo not drawn) | -7.45
CC(=O)NC(C)C(=O)NCc1ccc(N2CCNC(=O)C2)cc1 (stereo not drawn) | -15.7
COc1ccc(S(=O)(=O)NC(=O)COC2CCCCC2)cc1C | -4.48
COc1ccc(S(=O)(=O)NC(=O)COC2CCCCC2)cc1 | -7.04
CCn1cnnc1C1CCN(C(=O)c2cccc(C)c2C)CC1 | 30.1
CC(NC(=O)Cn1cccn1)c1ccc2c(c1)OCCO2 (stereo not drawn) | -11.1
CCn1cnnc1CNC(=O)N1CCN(c2ccccc2OC)CC1 | -9.83
Cc1noc(CNc2ccc(C(=O)N3CCCC(C)C3)cc2C)n1 (stereo not drawn) | -6.32
O=C1NCCN1C1CCN(Cc2nc(-c3ccc(F)cc3)no2)CC1 | 25
Cc1cc(C)n(CC2CN(CC(=O)NC3(C#N)CCCC3)CCO2)n1 (stereo not drawn) | -3.7
Cc1cc(C)n(CC2CN(CC(=O)NC(C3CC3)C3CC3)CCO2)n1 (stereo not drawn) | -4.44
COc1cc(CNC(C)Cn2cccn2)cc(Cl)c1OC (stereo not drawn) | -4.38
COc1cc(CNC(C)Cn2cccn2)cc2c1OCCO2 (stereo not drawn) | -4.44
